Earlier results, collected in PMC8597174 (Clinical Pharmacology in Drug Development, 2021).

## salmon calcitonin
  Effect of dosing after meal intake on maximum concentration and AUC: significant reduction in maximum concentration and AUC
